Laboratory results: patent US10611747B2, “Pyrone based compounds for treating bacterial infections” (FORGE THERAPEUTICS, INC., priority 2015, dated 2020)
Values after ≈ are worked out from the molar mass of the structure shown. Read-outs that look alike come from different tables or passages of the source.

How the values were obtained:
E. coli BW25113 = assay: Bacterial susceptibility testing (MIC, broth microdilution); assay type: cell-based; details: Escherichia coli, no FBS, 35° C., 18-24 h
Description: (§1) Minimal inhibitory concentrations (MIC) were determined by the broth microdilution method in accordance with the Clinical and Laboratory Standards Institute (CLSI) guidelines. In brief, organism suspensions were adjusted to a 0.5 McFarland standard to yield a final inoculum between 3×10^5 and 7×10^5 colony-forming units (CFU)/mL. Drug dilutions and inocula were made in sterile, cation adjusted Mueller-Hinton Broth (Beckton Dickinson). An inoculum volume of 100 μL was added to wells containing 100 μL of broth with 2-fold serial dilutions of drug. All inoculated microdilution trays were incubated in ambient air at 35° C. for 18-24 h. […] Performance of the assay was monitored by the use of laboratory quality-control strains and levofloxacin, a compound with a defined MIC spectrum, in accordance with CLSI guidelines.

E. coli delta tolC = assay: as above; assay type: cell-based; details: Escherichia coli, 24 h, read-out: MIC E. coli delta tolC
Description: as §1

P. aeruginosa 209 = assay: as above; assay type: cell-based; details: Pseudomonas aeruginosa, 209; broth microdilution, 35° C., 18-24 h; read-out: MIC P. aeruginosa 209
Description: as §1

E. coli imp mutant = assay: as above; assay type: cell-based; details: Escherichia coli, read-out: MIC E. coli imp mutant
Description: as §1

[1] = test system: P. aeruginosa 210 delta mexAB-OprM; assay: as above; assay type: cell-based; details: Pseudomonas aeruginosa, read-out: MIC P. aeruginosa 210 delta mexAB-OprM
Description: as §1

E. coli ATCC 25922 = assay: as above; assay type: cell-based; details: Escherichia coli
Description: as §1

S. aureus ATCC 29213 = assay: as above; assay type: cell-based; details: Staphylococcus aureus
Description: as §1

LpxC = LpxC (Klebsiella pneumoniae subsp. pneumoniae, UniProt A6T4N9); assay: Inhibition assay against Klebsiella pneumonae LpxC (LC-MS/MS); assay type: biochemical; details: LpxC 0.2 nM Kpn, 22° C., 60 minutes
Chain of LpxC (A6T4N9 whole entry): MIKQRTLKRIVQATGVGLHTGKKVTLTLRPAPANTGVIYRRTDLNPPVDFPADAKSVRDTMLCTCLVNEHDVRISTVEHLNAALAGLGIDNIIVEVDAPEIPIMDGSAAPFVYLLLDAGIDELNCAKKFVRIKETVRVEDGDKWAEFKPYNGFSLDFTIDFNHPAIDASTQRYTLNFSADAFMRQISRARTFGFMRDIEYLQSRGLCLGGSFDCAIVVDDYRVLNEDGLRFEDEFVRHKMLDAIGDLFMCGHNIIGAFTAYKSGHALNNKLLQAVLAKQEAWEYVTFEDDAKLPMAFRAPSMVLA
Description: LpxC inhibition assays were performed using liquid chromatography with tandem mass spectrometry. Assays were performed, in duplicate, in opaque, 96-well microplates in a total assay volume of 50 μL. The incubation mixture contained: LpxC (0.2 nM Kpn), 0.8 μM UDP-3-O—[(R)-3-hydroxymyristoyl]-N-acetyl-glucosamine, 40 mM Bis-Tris/HCI buffer (pH 5.9), 5 mM sodium phosphate buffer (NaH2PO4/Na2HPO4, pH 7.0), 1 mM DTT, 0.1% (w/v) fatty-acid free BSA, 10% DMSO (v/v, with or without compound). The reactions were incubated at 22° C. for 60 minutes (with mild shaking), then terminated by the addition of 25 μL 0.25 N HCl. Samples were analyzed using a LC-MS system to measure native LpxC substrate and reaction product. IC50 analysis was done using GeneData Screener and a four parameter variable slope normalized to controls. Test compounds were prepared as 8-point dose-response curves (factor dilution 2) in triplicate, starting at 1 μM final concentration. Each assay plate included 6 wells used for the Z′ factor calculation, 3 as a positive control for the assay and 3 as a negative control. The robustness was calculated as the median Z′ factor for 5 plates.

[2] = ATCC25922, no FBS, broth microdilution, 35° C., 18-24 h, read-out: MIC E. coli ATCC 25922-no FBS
[3] = ATCC29213, broth microdilution, 35° C., 18-24 h, read-out: MIC S. aureus ATCC 29213

| SMILES | MIC (E. coli BW25113) [µg/mL] | MIC (E. coli delta tolC) [µg/mL] | MIC (P. aeruginosa 209) [µg/mL] | MIC (E. coli imp mutant) [µg/mL] | MIC [1] [µg/mL] | MIC (E. coli ATCC 25922; [2]) [µg/mL] | MIC (S. aureus ATCC 29213; [3]) [µg/mL] | IC50 (LpxC) [nM] | MIC (E. coli ATCC 25922; ATCC25922, read-out: MIC E. coli ATCC 25922-no FBS) [µg/mL] | MIC (S. aureus ATCC 29213; ATCC29213, read-out: MIC S. aureus ATCC 29213) [µg/mL] |
| --- | --- | --- | --- | --- | --- | --- | --- | --- | --- | --- |
| O=c1ccoc(CNc2ccc(C#CC#Cc3ccccc3)cc2)c1O [Compound 28] | 1 to 8 (≈ 2.93 to 23.4 µM) | 1 to 8 (≈ 2.93 to 23.4 µM) | > 32 | 1 to 8 (≈ 2.93 to 23.4 µM) | > 32 | 1 to 8 (≈ 2.93 to 23.4 µM) | > 32 | > 100 | – | – |
| O=C(c1ccc(C#CC#Cc2ccc(NCc3occc(=O)c3O)cc2)cc1)N1CCOCC1 [Compound 32] | 1 to 8 (≈ 2.2 to 17.6 µM) | < 1 | > 32 | 1 to 8 (≈ 2.2 to 17.6 µM) | > 32 | 1 to 8 (≈ 2.2 to 17.6 µM) | > 32 | 10 to 100 | – | – |
| CNC(=O)c1ccc(C#CC#Cc2ccc(NCc3occc(=O)c3O)cc2)cc1 [Compound 35] | 1 to 8 (≈ 2.51 to 20.1 µM) | < 1 | > 32 | 1 to 8 (≈ 2.51 to 20.1 µM) | > 32 | 1 to 8 (≈ 2.51 to 20.1 µM) | > 32 | > 100 | – | – |
| O=C(O)c1ccc(C#CC#Cc2ccc(NCc3occc(=O)c3O)cc2)cc1 [Compound 38] | < 1 | < 1 | > 32 | < 1 | 8 to 32 (≈ 20.8 to 83 µM) | 1 to 8 (≈ 2.59 to 20.8 µM) | > 32 | > 100 | – | – |
| CNC(=O)c1ccc(C#CC#Cc2ccc(NCc3oc(CS(C)(=O)=O)cc(=O)c3O)cc2)cc1 [Compound 4, 4-((4-(((3-hydroxy-6-((methylsulfonyl)methyl)-4-oxo-4H-pyran-2-yl)methyl)amino)phenyl)buta-1,3-diyn-1-yl)-N-methylbenzamide] | – | < 1 | – | 8 to 32 (≈ 16.3 to 65.2 µM) | – | – | – | > 100 | 1 to 8 (≈ 2.04 to 16.3 µM) | > 32 |
| O=C(c1ccc(C#CC#Cc2ccc(NCc3occc(=O)c3O)cc2)cc1)N1CC(O)C1 [Compound 39] | 1 to 8 (≈ 2.27 to 18.2 µM) | < 1 | > 32 | 1 to 8 (≈ 2.27 to 18.2 µM) | 8 to 32 (≈ 18.2 to 72.7 µM) | 1 to 8 (≈ 2.27 to 18.2 µM) | > 32 | 10 to 100 | – | – |
| CN1CCN(C(=O)c2ccc(C#CC#Cc3ccc(NCc4occc(=O)c4O)cc3)cc2)CC1 [Compound 40] | 1 to 8 (≈ 2.14 to 17.1 µM) | < 1 | > 32 | < 1 | 8 to 32 (≈ 17.1 to 68.4 µM) | 1 to 8 (≈ 2.14 to 17.1 µM) | > 32 | 10 to 100 | – | – |
| O=c1ccoc(CNc2ccc(C#CC#Cc3ccc(CN4CCOCC4)cc3)cc2)c1O [Compound 47] | 1 to 8 (≈ 2.27 to 18.2 µM) | 1 to 8 (≈ 2.27 to 18.2 µM) | > 32 | 1 to 8 (≈ 2.27 to 18.2 µM) | > 32 | 8 to 32 (≈ 18.2 to 72.6 µM) | > 32 | 10 to 100 | – | – |
| O=C(c1ccc(C#CC#Cc2ccc(NCc3occc(=O)c3O)cc2)cc1)N1CCC(O)C1 (stereo not drawn) [Compound 45] | 1 to 8 (≈ 2.2 to 17.6 µM) | < 1 | > 32 | < 1 | 8 to 32 (≈ 17.6 to 70.4 µM) | 1 to 8 (≈ 2.2 to 17.6 µM) | > 32 | – | – | – |
| O=C(NCCN1CCOCC1)c1ccc(C#CC#Cc2ccc(NCc3occc(=O)c3O)cc2)cc1 [Compound 46] | 1 to 8 (≈ 2.01 to 16.1 µM) | < 1 | > 32 | 1 to 8 (≈ 2.01 to 16.1 µM) | > 32 | 8 to 32 (≈ 16.1 to 64.3 µM) | > 32 | – | – | – |
